Test results as given in patent US20240050580A1, “COMPOSITIONS TARGETING TUMOR ASSOCIATED MACROPHAGES AND METHODS USING SAME” (Rutgers, The State University of New Jersey, priority 2020, published 2024).
Bridge positions count the residues as written; N and C are the ends. Ends that are not written are not given here.

Experiments:
[1] = system: CD11b+F4/80+ TAM from EF43.fgf4 mammary tumors; assay: Cytokine gene expression by quantitative real-time PCR in cultured TAM; format: cell-based, mouse
Protocol: Three sets of total RNA (RNeasy Mini Kit, Qiagen) were independently isolated from cultured macrophages, or fresh macrophages isolated directly from tumors. DNA synthesis was performed with the […] Reverse Transcription System (Promega) by using oligodT for reverse transcription. Gene expression was analyzed with the use of Tagman probes (Applied Biosystems) in a 7500 Fast Real-Time PCR System instrument (Applied Biosystems) and three sets of endogenous control genes: 18S and GAPDH and GUSB1. TAM were obtained directly from EF43.fgf4 tumors. Tissue digestion was performed in collagenase A in serum-free DMEM (1 mg/mL) for 20 minutes at 37° C., followed by filtering through 70 μm nylon cell strainers and centrifugation. Macrophages were enriched by magnetic bead separation of CD11b-positive cells (Miltenyi Biotec) and either used for RNA extraction or cultured in 6-well plates containing DMEM (Gibco) supplemented with 20% FBS (Sigma) and 50 ng/ml of M-CSF (R&D Systems). A homogeneous population of adherent macrophages (namely, >99% CD11b+F480+) was obtained after 7 days in culture.

DBP = biological target: T1, DBP (Homo sapiens, UniProt P02774); assay: Competitive binding of […]-phage and vitamin D forms to DBP; settings: wells pre-incubated with 3 nM or 30 nM competitor; P<0.05
T1 construct: GST; purchased Abcam
T1 sequence (P02774 17-474): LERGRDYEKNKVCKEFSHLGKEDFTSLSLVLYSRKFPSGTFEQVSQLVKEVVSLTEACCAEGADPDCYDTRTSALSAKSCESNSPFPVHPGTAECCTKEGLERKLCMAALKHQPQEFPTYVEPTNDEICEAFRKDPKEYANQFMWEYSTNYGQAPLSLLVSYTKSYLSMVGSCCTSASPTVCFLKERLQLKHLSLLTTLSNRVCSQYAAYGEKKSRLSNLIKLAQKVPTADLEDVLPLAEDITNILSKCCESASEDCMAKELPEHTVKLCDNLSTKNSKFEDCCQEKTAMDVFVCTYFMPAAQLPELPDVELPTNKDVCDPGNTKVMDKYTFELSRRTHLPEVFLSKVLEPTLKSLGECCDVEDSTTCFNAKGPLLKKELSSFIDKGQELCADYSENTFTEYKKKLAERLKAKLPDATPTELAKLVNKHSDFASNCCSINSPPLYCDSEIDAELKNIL
Protocol: (§1) The Biopanning and Rapid Analysis of Selective Interactive Ligands (BRASIL) methodology was used to test binding of phage to cultured cells. For phage binding to the candidate receptors PDIA3 and DBP, individual microtiter wells of 96-well plates were coated overnight (ON) with 1 μg/ml of recombinant proteins, followed by blocking with BSA and incubation with 10^9 TU of insertless phage or […]-phage for 1 hour at room temperature (RT). GST and BSA were used as control proteins. Bound phage were recovered by log-phase infection of host bacteria (200 μl E. coli K91Kan).

EF43.fgf4 cells = assay: Phage/peptide binding to cultured EF43.fgf4 cells (BRASIL cell binding assay); format: cell-based, mouse; settings: standard cell binding assay, phage-displayed peptide
Protocol: as §1

[2] = system: EF43.fgf4-derived mammary fat pad tumors; assay: In vivo phage display library selection in EF43.fgf4 tumor-bearing mice; design: species or system mouse; settings: peptide sequences from third round of in vivo selection
Protocol: Combinatorial phage display selections in vivo in tumor-bearing mice were performed as described in the literature. In brief, animals received 10^9 TU iv of an unselected phage display random peptide library (displaying the insert CX7C). Tumors and control organs were collected after 24 hours of systemic circulation. For homing of individual phage clones in vivo, tumor-bearing mice were deeply anesthetized with 1-2% isoflurane and received 10^9 TU of targeted phage or insertless control phage, both administered iv side-by-side. Phage particles were recovered from tissue samples by bacterial infection and processed as described in the literature.
A phage display-based approach was used to identify homing peptides that target TAM in TNBC. […] A random phage peptide library was first administered intravenously (iv) in immunocompetent female BALB/c mice with established EF43.fgf4-derived mammary fat pad tumors. Phage particles were recovered from tumors after 24 hours, re-amplified, and subjected to two additional rounds of in vivo selection. […] The four selected peptides were next individually evaluated based on absence of binding to EF43.fgf4 cells in vitro (FIG. 2B). […] In a non-limiting aspect, the peptides […], (SEQ ID NO:3) […] (SEQ ID NO:4), and […] (SEQ ID NO:2) were not studied further.

EF43.fgf4 tumors = assay: Systemic treatment of EF43.fgf4 tumor-bearing mice with soluble peptide; format: in vivo, mouse
[3] = biological target: T2, recombinant human vitamin D-binding protein (DBP) (human, UniProt P02774 17-474, limits assumed); assay: phage binding assay on coated recombinant protein, bound phage counted as TU
T2 construct: Bought from Abcam and coated at 1 ug/ml on microtiter wells; also called recombinant human DBP; DBP-GST
T2 sequence (looked up): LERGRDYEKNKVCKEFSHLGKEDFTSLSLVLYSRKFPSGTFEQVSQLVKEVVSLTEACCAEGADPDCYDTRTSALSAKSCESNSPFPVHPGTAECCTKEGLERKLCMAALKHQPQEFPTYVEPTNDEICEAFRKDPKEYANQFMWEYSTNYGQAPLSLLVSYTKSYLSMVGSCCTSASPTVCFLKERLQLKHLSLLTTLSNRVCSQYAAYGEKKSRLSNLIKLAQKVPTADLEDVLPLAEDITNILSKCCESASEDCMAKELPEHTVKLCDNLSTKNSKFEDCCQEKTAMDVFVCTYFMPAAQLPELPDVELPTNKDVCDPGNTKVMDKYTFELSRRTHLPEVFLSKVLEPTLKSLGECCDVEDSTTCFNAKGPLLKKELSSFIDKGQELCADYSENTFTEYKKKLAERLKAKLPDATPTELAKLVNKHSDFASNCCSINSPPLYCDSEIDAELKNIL
Protocol: The Biopanning and Rapid Analysis of Selective Interactive Ligands (BRASIL) methodology was used to test binding of phage to cultured cells. […] GST and BSA were used as control proteins. Bound phage were recovered by log-phase infection of host bacteria (200 μl E. coli K91Kan).

[4] = biological target: T3, PDIA3 on the surface of tumor associated macrophages (TAM) from EF43.fgf4 mammary tumors (mouse, UniProt P27773 25-505); assay: cell-based or functional assay
T3 sequence (looked up): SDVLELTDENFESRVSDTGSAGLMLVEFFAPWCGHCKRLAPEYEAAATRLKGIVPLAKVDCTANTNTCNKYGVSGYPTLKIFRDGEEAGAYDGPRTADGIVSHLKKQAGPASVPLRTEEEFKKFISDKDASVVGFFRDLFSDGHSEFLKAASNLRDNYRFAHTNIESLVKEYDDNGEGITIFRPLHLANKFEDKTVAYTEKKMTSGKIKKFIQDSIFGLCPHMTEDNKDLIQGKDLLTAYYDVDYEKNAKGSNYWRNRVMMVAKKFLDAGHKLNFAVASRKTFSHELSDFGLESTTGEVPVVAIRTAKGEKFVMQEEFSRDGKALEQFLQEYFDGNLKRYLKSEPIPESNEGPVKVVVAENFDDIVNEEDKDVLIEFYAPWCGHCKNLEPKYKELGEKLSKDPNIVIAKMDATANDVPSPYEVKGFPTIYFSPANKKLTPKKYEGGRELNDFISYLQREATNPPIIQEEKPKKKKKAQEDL

## C=C1/C(=C\C=C2/CCC[C@]3(C)[C@@H]([C@H](C)CCCC(C)(C)O)CC[C@@H]23)C[C@@H](O)C[C@@H]1O [1,25-(OH)2D3, reference compound]
[1]; TAM co-treated with CSSTRESAC peptide and 1,25-(OH)2D3
  effect of co-treatment on the CSSTRESAC-induced cytokine response: abrogated

## C=C1CC[C@H](O)C/C1=C/C=C1\CCC[C@]2(C)[C@@H]([C@H](C)CCCC(C)C)CC[C@@H]12 [vitamin D3, cholecalciferol]
DBP
  effect on binding of CSSTRESAC-phage to immobilized DBP: not

## CQRALMIAC (TAM Targeting Peptide) [TAM targeting peptide selected by in vivo phage display]
EF43.fgf4 cells
  binding to EF43.fgf4 cells in vitro: bound to EF43.fgf4 cells

## CRGFVVGRC (TAM Targeting Peptide) [TAM targeting peptide selected by in vivo phage display]
EF43.fgf4 cells
  binding to EF43.fgf4 cells in vitro: bound to EF43.fgf4 cells

## CRYSAARSC (TAM Targeting Peptide) [TAM targeting peptide selected by in vivo phage display]
EF43.fgf4 cells
  binding to EF43.fgf4 cells in vitro: bound to EF43.fgf4 cells

## CSSTRESAC (disulfide 1-9) [TAM targeting peptide from CX7C phage library; modeled with disulfide bridge between Cys1 and Cys9]
[2]
  enrichment relative to each of the other three selected peptides: 16 fold
EF43.fgf4 cells
  binding to EF43.fgf4 cells in vitro: did not
[1]
  gene expression of IL-4 and IL-13: undetectable
[1]; relative to control cells
  gene expression of IL-18, IL-12, and INFβ: modest increases or were detected only at background levels
  gene expression of anti-inflammatory cytokines TGF-β1, TGF-β2, IL-10, and arginase-1: much lower increases
EF43.fgf4 tumors; iv, vs unrelated control peptide or vehicle, from one week post initiation, P<0.001
  tumor growth: significant delay in tumor growth
EF43.fgf4 tumors; vs control peptide
  macrophage population in tumor sections (immunohistochemistry, CD163): reduction of the macrophage population
EF43.fgf4 tumors; vs negative control groups
  number of CD11b+IL10highIL12low PDIA3-expressing TAM in tumors (FACS): reduction in the number

B1: CSSTRESAC-phage (peptide)
peptide: CSSTRESAC
modifications: cysteine pairing not given here; also: displayed on bacteriophage particle
notes: The control was insertless phage; not shown: The phage coat protein and the rest of the phage particle that carry the CX7C insert
[3]
  binding result: binds

## CSSTRESAC (not fully specified; cysteine pairing not given here) [synthetic CSSTRESAC peptide (SEQ ID NO:1)]
[4]
  gene expression of iNOS2 in cultured CD11b+F4/80+ TAM (real-time quantitative PCR): ~20 fold
  gene expression of the cytokine IL-23 in cultured CD11b+F4/80+ TAM (real-time quantitative PCR): ~10 fold
  gene expression of the pro-inflammatory cytokines IL-1β, TNF-α, and IL-6 in cultured CD11b+F4/80+ TAM (real-time quantitative PCR): ~40 fold
